According to ChEMBL document CHEMBL1909046, “DrugMatrix in vitro pharmacology data”:

Columns and labels:
[1] = target: T1, 3-hydroxy-3-methylglutaryl-coenzyme A reductase (Homo sapiens, UniProt P04035); set-up: species or system Escherichia coli;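 note: enzyme inhibition assay of HMG-CoA reductase using radiolabeled [14C]HMG-CoA as substrate; in other assays of this panel Not Active means under 50% inhibition at 10 µM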
T1 sequence (P04035 whole entry): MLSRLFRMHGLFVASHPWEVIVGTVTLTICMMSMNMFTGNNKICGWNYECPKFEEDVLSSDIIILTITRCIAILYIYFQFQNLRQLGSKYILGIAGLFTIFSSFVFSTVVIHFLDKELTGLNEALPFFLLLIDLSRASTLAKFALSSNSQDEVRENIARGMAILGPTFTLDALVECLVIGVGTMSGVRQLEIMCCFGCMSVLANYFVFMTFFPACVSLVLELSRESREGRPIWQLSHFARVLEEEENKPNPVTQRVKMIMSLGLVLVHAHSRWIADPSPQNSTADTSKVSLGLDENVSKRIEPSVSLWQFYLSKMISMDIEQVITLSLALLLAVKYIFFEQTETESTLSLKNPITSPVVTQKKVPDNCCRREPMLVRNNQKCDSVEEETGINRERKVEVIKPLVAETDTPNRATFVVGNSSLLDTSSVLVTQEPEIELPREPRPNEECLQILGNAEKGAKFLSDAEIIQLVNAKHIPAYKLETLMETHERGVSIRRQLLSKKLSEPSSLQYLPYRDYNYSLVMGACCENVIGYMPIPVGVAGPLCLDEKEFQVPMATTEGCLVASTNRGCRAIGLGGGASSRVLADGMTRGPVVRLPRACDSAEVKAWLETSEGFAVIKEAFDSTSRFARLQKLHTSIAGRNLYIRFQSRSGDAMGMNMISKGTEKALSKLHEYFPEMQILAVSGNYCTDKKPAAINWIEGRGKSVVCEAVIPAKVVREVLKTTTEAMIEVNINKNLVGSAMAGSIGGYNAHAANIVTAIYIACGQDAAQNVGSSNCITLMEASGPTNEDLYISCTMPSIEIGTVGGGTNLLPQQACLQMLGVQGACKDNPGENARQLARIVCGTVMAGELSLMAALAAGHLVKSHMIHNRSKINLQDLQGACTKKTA

[2] = DRUGMATRIX: Calcium Channel Type L, Dihydropyridine radioligand binding (ligand: [3H] Nitrendipine); type: cell membranes, Rattus norvegicus, Wistar, Cerebral cortex, Membrane; conditions: Not Active = under 50% inhibition at 10 µM
Cytochrome P450 2C9 = Cytochrome P450 2C9 (Homo sapiens, UniProt P11712); conditions: bti-tn-5b1-4; note: in other assays of this panel Not Active means under 50% inhibition at 10 µM
Cathepsin G = target: T2, Cathepsin G (Homo sapiens, UniProt P08311); assay: biochemical; type: tissue-based, Neutrophil; conditions: neutrophil;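 note: inhibition of Cathepsin G enzyme activity, tested on an AMC-conjugated peptide substrate; in other assays of this panel Not Active means under 50% inhibition at 10 µM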
T2 sequence (P08311 whole entry): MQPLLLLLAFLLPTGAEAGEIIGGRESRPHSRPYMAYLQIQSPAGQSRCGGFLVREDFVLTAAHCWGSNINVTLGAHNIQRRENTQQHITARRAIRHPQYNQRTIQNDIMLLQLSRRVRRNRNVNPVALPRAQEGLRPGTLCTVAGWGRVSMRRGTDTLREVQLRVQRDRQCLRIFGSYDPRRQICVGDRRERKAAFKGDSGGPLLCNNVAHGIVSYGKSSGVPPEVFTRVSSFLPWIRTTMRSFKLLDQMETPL

[3] = DRUGMATRIX: Glutamate, Kainate radioligand binding (ligand: [3H] Kainic acid); type: cell membranes, Rattus norvegicus, Wistar, Brain, Membrane; conditions: Not Active = under 50% inhibition at 10 µM
Cytochrome P450 1A2 = target: T3, Cytochrome P450 1A2 (Homo sapiens, UniProt P05177); conditions: bti-tn-5b1-4; note: in other assays of this panel Not Active means under 50% inhibition at 10 µM
T3 sequence (P05177 whole entry): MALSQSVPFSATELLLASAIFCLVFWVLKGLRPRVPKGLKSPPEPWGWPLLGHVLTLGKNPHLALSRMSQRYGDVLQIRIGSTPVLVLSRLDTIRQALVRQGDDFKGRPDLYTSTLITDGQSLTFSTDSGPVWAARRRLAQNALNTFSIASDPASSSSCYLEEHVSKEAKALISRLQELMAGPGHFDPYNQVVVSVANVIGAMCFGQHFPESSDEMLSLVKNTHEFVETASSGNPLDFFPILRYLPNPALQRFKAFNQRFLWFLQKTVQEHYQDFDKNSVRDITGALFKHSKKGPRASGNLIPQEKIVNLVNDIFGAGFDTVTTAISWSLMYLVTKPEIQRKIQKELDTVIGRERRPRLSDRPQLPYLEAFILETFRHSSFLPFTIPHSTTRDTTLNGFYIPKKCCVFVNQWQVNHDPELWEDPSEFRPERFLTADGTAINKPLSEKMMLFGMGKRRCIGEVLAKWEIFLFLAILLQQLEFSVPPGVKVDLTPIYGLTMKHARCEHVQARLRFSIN

Cannabinoid receptor 1 = Cannabinoid receptor 1 (Homo sapiens, UniProt P21554); type: cell membranes, Chem-1, Membrane; conditions: chem-1; note: in other assays of this panel Not Active means under 50% inhibition at 10 µM
Carbonic anhydrase 2 = Carbonic anhydrase 2 (Homo sapiens, UniProt P00918); assay: DRUGMATRIX: Carbonic Anhydrase II enzyme inhibition (substrate: 4-Nitrophenyl acetate (4-NPA)); type: tissue-based, Erythrocyte; conditions: erythrocyte; Not Active = under 50% inhibition at 10 µM

Cannabinoid receptor 1, sequence (P21554 whole entry): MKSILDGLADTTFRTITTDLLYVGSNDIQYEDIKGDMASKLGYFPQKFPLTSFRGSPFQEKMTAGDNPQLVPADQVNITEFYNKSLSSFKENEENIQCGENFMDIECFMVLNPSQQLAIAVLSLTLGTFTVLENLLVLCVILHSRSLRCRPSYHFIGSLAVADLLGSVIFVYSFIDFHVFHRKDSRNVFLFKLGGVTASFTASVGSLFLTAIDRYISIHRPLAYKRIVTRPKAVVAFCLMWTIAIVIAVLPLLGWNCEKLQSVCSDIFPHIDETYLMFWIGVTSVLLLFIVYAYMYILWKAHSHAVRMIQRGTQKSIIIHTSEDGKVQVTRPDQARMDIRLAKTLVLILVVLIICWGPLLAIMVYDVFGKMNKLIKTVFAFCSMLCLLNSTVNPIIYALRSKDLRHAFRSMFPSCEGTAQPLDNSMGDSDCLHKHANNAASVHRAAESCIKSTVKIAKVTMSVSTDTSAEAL
Cytochrome P450 2C9, sequence (P11712 whole entry): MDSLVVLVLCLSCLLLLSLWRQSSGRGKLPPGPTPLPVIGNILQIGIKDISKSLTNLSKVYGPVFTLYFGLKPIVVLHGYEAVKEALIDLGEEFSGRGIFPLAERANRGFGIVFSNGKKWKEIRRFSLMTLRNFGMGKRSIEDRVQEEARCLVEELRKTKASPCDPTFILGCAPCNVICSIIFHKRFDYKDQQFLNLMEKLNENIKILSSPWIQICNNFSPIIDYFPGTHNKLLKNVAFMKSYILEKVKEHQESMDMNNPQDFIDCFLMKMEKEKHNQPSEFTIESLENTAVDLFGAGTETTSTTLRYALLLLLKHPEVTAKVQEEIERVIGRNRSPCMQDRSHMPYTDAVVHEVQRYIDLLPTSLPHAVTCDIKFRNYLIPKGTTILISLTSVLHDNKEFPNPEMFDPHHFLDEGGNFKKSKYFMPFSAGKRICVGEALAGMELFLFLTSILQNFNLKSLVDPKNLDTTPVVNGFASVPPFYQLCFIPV

OC[C@H]1OC2C3[C@@H](CO)OC(O[C@H]4[C@H](O)[C@@H](O)[C@@H](O[C@H]5[C@H](O)[C@@H](O)[C@@H](O[C@H]6[C@H](O)[C@@H](O)[C@@H](O[C@H]7[C@H](O)[C@@H](O)[C@@H](O[C@H]8[C@H](O)[C@@H](O)[C@@H](O[C@H]9[C@H](O)[C@@H](O)C(OC1[C@H](O)[C@H]2O)O[C@@H]9CO)O[C@@H]8CO)O[C@@H]7CO)O[C@@H]6CO)O[C@@H]5CO)O[C@@H]4CO)[C@H](O)[C@H]3O
Not Active: IC50 [1] | IC50 [2] | Ki [2] | IC50 (Cytochrome P450 2C9) | Ki (Cytochrome P450 2C9) | IC50 (Cathepsin G) | IC50 [3] | Ki [3] | IC50 (Cytochrome P450 1A2) | Ki (Cytochrome P450 1A2) | IC50 (Cannabinoid receptor 1) | IC50 (Carbonic anhydrase 2)

CCN1CCN(c2cc3c(cc2F)c(=O)c(C(=O)O)cn3C2CC2)CC1 [ENROFLOXACIN]
Not Active: IC50 [1] | IC50 [2] | Ki [2] | IC50 (Cytochrome P450 2C9) | Ki (Cytochrome P450 2C9) | IC50 (Cathepsin G) | IC50 [3] | Ki [3] | IC50 (Cytochrome P450 1A2) | Ki (Cytochrome P450 1A2) | IC50 (Cannabinoid receptor 1) | IC50 (Carbonic anhydrase 2)

POVIDONE
Not Active: IC50 [1] | Ki [1] | IC50 [2] | Ki [2] | IC50 (Cytochrome P450 2C9) | Ki (Cytochrome P450 2C9) | IC50 (Cathepsin G) | Ki (Cathepsin G) | IC50 [3] | Ki [3] | IC50 (Cytochrome P450 1A2) | Ki (Cytochrome P450 1A2) | IC50 (Cannabinoid receptor 1) | Ki (Cannabinoid receptor 1) | IC50 (Carbonic anhydrase 2) | Ki (Carbonic anhydrase 2)

C=C(Cl)Cl [1,1-DICHLOROETHENE]
Not Active: IC50 [1] | IC50 [2] | Ki [2] | IC50 (Cytochrome P450 2C9) | Ki (Cytochrome P450 2C9) | IC50 (Cathepsin G) | IC50 [3] | Ki [3] | IC50 (Cytochrome P450 1A2) | Ki (Cytochrome P450 1A2) | IC50 (Cannabinoid receptor 1) | IC50 (Carbonic anhydrase 2)

C=CCN1CC[C@]23c4c5ccc(O)c4O[C@H]2/C(=N/N=C2\CC[C@@]4(O)[C@H]6Cc7ccc(O)c8c7[C@@]4(CCN6CC=C)[C@H]2O8)CC[C@@]3(O)[C@H]1C5 [NALOXONAZINE]
Not Active: IC50 [1] | IC50 [2] | Ki [2] | IC50 (Cytochrome P450 2C9) | Ki (Cytochrome P450 2C9) | IC50 (Cathepsin G) | IC50 [3] | Ki [3] | IC50 (Cytochrome P450 1A2) | Ki (Cytochrome P450 1A2) | IC50 (Cannabinoid receptor 1) | IC50 (Carbonic anhydrase 2)

Oc1ncnc2[nH]ncc12 [ALLOPURINOL]
Not Active: IC50 [1] | IC50 [2] | Ki [2] | IC50 (Cytochrome P450 2C9) | Ki (Cytochrome P450 2C9) | IC50 (Cathepsin G) | IC50 [3] | Ki [3] | IC50 (Cytochrome P450 1A2) | Ki (Cytochrome P450 1A2) | IC50 (Cannabinoid receptor 1) | IC50 (Carbonic anhydrase 2)

CCC1(c2ccccc2)C(=O)NC(=O)NC1=O [PHENOBARBITAL]
Not Active: IC50 [1] | IC50 [2] | Ki [2] | IC50 (Cytochrome P450 2C9) | Ki (Cytochrome P450 2C9) | IC50 (Cathepsin G) | IC50 [3] | Ki [3] | IC50 (Cytochrome P450 1A2) | Ki (Cytochrome P450 1A2) | IC50 (Cannabinoid receptor 1) | IC50 (Carbonic anhydrase 2)

CHROMIC CHLORIDE
Not Active: IC50 [1] | Ki [1] | IC50 [2] | Ki [2] | IC50 (Cytochrome P450 2C9) | Ki (Cytochrome P450 2C9) | IC50 (Cathepsin G) | Ki (Cathepsin G) | IC50 [3] | Ki [3] | IC50 (Cytochrome P450 1A2) | Ki (Cytochrome P450 1A2) | IC50 (Cannabinoid receptor 1) | Ki (Cannabinoid receptor 1) | IC50 (Carbonic anhydrase 2) | Ki (Carbonic anhydrase 2)

CCCCCCNC(=O)n1cc(F)c(=O)[nH]c1=O [CARMOFUR]
Not Active: IC50 [1] | IC50 [2] | Ki [2] | IC50 (Cytochrome P450 2C9) | Ki (Cytochrome P450 2C9) | IC50 (Cathepsin G) | IC50 [3] | Ki [3] | IC50 (Cytochrome P450 1A2) | Ki (Cytochrome P450 1A2) | IC50 (Cannabinoid receptor 1) | IC50 (Carbonic anhydrase 2)

O=C(O)CCc1nc(-c2ccccc2)c(-c2ccccc2)o1 [OXAPROZIN]
Not Active: IC50 [1] | IC50 [2] | Ki [2] | IC50 (Cytochrome P450 2C9) | Ki (Cytochrome P450 2C9) | IC50 (Cathepsin G) | IC50 [3] | Ki [3] | IC50 (Cytochrome P450 1A2) | Ki (Cytochrome P450 1A2) | IC50 (Cannabinoid receptor 1) | IC50 (Carbonic anhydrase 2)

CCN1C[C@]2(COC)[C@H](O)C[C@H](OC)[C@@]34[C@@H]5C[C@@]6(O)[C@H](OC(=O)c7ccccc7)[C@@H]5[C@@](OC(C)=O)([C@@H]([C@H](OC)[C@H]23)[C@@H]14)[C@@H](O)[C@@H]6OC [ACONITINE]
Not Active: IC50 [1] | IC50 [2] | Ki [2] | IC50 (Cytochrome P450 2C9) | Ki (Cytochrome P450 2C9) | IC50 (Cathepsin G) | IC50 [3] | Ki [3] | IC50 (Cytochrome P450 1A2) | Ki (Cytochrome P450 1A2) | IC50 (Cannabinoid receptor 1) | IC50 (Carbonic anhydrase 2)
